From PubChem BioAssay (NCI) come the findings set out here.

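In this assay, cells in 96-well plates receive the compound at five concentrations for 48 hours. Endpoints are linearly interpolated between the surrounding concentrations. TGI is the concentration that stops growth completely.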 Where only a bound is given, the exact number is not on record here.

One experiment deals with CCRF-CEM leukemia. As to the kind of experiment: NCI anticancer screen, dose series, 48 h.
The molecule `CC1(C)O[C@H]2OC3CCC(=O)CC3(O)[C@H]2O1` (stereo not given in full) gave a TGI above 100 µM.

For a further experiment, the system named is NCI-H226 lung. Description: NCI anticancer screen, dose series, 48 h.
Regarding `O=C1N[C@@H]2CCC[C@@H]2[C@@H]1c1ccc(Cl)cc1`, the TGI was above 100 µM.

The molecule `CC1(C)O[C@H]2OC3CCC(=O)CC3(O)[C@H]2O1` (stereo not given in full) yielded a TGI above 100 µM.

The molecule `Cc1cc2c(cc1C)NC1=C(N2)OC(c2c[nH]c3ccc(COc4ccccc4)cc23)C1=O` (stereo not given) showed a TGI above 100 µM.

On to `O=C(O)C1=NN(c2ccc(S(=O)(=O)O)cc2)C2(C1)C(Cl)C(=O)N2c1nc2ccccc2s1` (stereo not given), for which the TGI was 41.4 µM.

The subject of the next experiment is UACC-62 melanoma. Description: NCI anticancer screen, dose series, 48 h.
As for `O=C1N[C@@H]2CCC[C@@H]2[C@@H]1c1ccc(Cl)cc1`, the TGI is above 100 µM.

In turn, `CC1(C)O[C@H]2OC3CCC(=O)CC3(O)[C@H]2O1` (stereo not given in full) yielded a TGI above 100 µM.

On to `Cc1cc2c(cc1C)NC1=C(N2)OC(c2c[nH]c3ccc(COc4ccccc4)cc23)C1=O` (stereo not given), for which the TGI is above 100 µM.

Turning to `O=C(O)C1=NN(c2ccc(S(=O)(=O)O)cc2)C2(C1)C(Cl)C(=O)N2c1nc2ccccc2s1` (stereo not given), the TGI is 29.5 µM.

The subject of another experiment is SK-MEL-5 melanoma. Description: NCI anticancer screen, dose series, 48 h.
For the molecule `O=C1N[C@@H]2CCC[C@@H]2[C@@H]1c1ccc(Cl)cc1`, the TGI is above 100 µM.

In the case of `CC1(C)O[C@H]2OC3CCC(=O)CC3(O)[C@H]2O1` (stereo not given in full), the TGI is above 100 µM.

`Cc1cc2c(cc1C)NC1=C(N2)OC(c2c[nH]c3ccc(COc4ccccc4)cc23)C1=O` (stereo not given) showed a TGI above 100 µM.

`O=C(O)C1=NN(c2ccc(S(=O)(=O)O)cc2)C2(C1)C(Cl)C(=O)N2c1nc2ccccc2s1` (stereo not given): the TGI came out at 25.6 µM.

A further experiment relates to HT29 colon. Description: NCI anticancer screen, dose series, 48 h.
In turn, `O=C1N[C@@H]2CCC[C@@H]2[C@@H]1c1ccc(Cl)cc1` gave a TGI above 100 µM.

In turn, `CC1(C)O[C@H]2OC3CCC(=O)CC3(O)[C@H]2O1` (stereo not given in full) yielded a TGI above 100 µM.

The molecule `Cc1cc2c(cc1C)NC1=C(N2)OC(c2c[nH]c3ccc(COc4ccccc4)cc23)C1=O` (stereo not given) had a TGI above 100 µM.

As for `O=C(O)C1=NN(c2ccc(S(=O)(=O)O)cc2)C2(C1)C(Cl)C(=O)N2c1nc2ccccc2s1` (stereo not given), the TGI was determined as 34.9 µM.

The next experiment relates to UO-31 renal. As to the kind of experiment: NCI anticancer screen, dose series, 48 h.
`O=C1N[C@@H]2CCC[C@@H]2[C@@H]1c1ccc(Cl)cc1` gave a TGI above 100 µM.

As to `CC1(C)O[C@H]2OC3CCC(=O)CC3(O)[C@H]2O1` (stereo not given in full), the TGI was above 100 µM.

Take `Cc1cc2c(cc1C)NC1=C(N2)OC(c2c[nH]c3ccc(COc4ccccc4)cc23)C1=O` (stereo not given): the TGI is above 100 µM.

For `O=C(O)C1=NN(c2ccc(S(=O)(=O)O)cc2)C2(C1)C(Cl)C(=O)N2c1nc2ccccc2s1` (stereo not given), the TGI stood at 22.9 µM.

In a further experiment the test system is SW-620 colon. As to the kind of experiment: NCI anticancer screen, dose series, 48 h.
`O=C1N[C@@H]2CCC[C@@H]2[C@@H]1c1ccc(Cl)cc1`: the TGI was above 100 µM.

As for `CC1(C)O[C@H]2OC3CCC(=O)CC3(O)[C@H]2O1` (stereo not given in full), the TGI was above 100 µM.

In turn, `Cc1cc2c(cc1C)NC1=C(N2)OC(c2c[nH]c3ccc(COc4ccccc4)cc23)C1=O` (stereo not given) yielded a TGI above 100 µM.

`O=C(O)C1=NN(c2ccc(S(=O)(=O)O)cc2)C2(C1)C(Cl)C(=O)N2c1nc2ccccc2s1` (stereo not given) yielded a TGI of 19.8 µM.

The next experiment deals with MDA-MB-231 breast. As to the kind of experiment: NCI anticancer screen, dose series, 48 h.
As for `CC1(C)O[C@H]2OC3CCC(=O)CC3(O)[C@H]2O1` (stereo not given in full), the TGI was above 100 µM.

On to `Cc1cc2c(cc1C)NC1=C(N2)OC(c2c[nH]c3ccc(COc4ccccc4)cc23)C1=O` (stereo not given), for which the TGI is 67.1 µM.

In the case of `O=C(O)C1=NN(c2ccc(S(=O)(=O)O)cc2)C2(C1)C(Cl)C(=O)N2c1nc2ccccc2s1` (stereo not given), the TGI stood at 37.5 µM.

The test system of a further experiment is NCI-H522 lung. As to the kind of experiment: NCI anticancer screen, dose series, 48 h.
`O=C1N[C@@H]2CCC[C@@H]2[C@@H]1c1ccc(Cl)cc1` registered a TGI above 100 µM.

In turn, `CC1(C)O[C@H]2OC3CCC(=O)CC3(O)[C@H]2O1` (stereo not given in full) had a TGI above 100 µM.

With `Cc1cc2c(cc1C)NC1=C(N2)OC(c2c[nH]c3ccc(COc4ccccc4)cc23)C1=O` (stereo not given), the TGI is above 100 µM.

Turning to `O=C(O)C1=NN(c2ccc(S(=O)(=O)O)cc2)C2(C1)C(Cl)C(=O)N2c1nc2ccccc2s1` (stereo not given), the TGI turned out to be 25.8 µM.

Another experiment concerns OVCAR-3 ovarian. Description: NCI anticancer screen, dose series, 48 h.
Take `O=C1N[C@@H]2CCC[C@@H]2[C@@H]1c1ccc(Cl)cc1`: the TGI was above 100 µM.

`CC1(C)O[C@H]2OC3CCC(=O)CC3(O)[C@H]2O1` (stereo not given in full) had a TGI above 100 µM.

As for `Cc1cc2c(cc1C)NC1=C(N2)OC(c2c[nH]c3ccc(COc4ccccc4)cc23)C1=O` (stereo not given), the TGI was above 100 µM.

Molecule `O=C(O)C1=NN(c2ccc(S(=O)(=O)O)cc2)C2(C1)C(Cl)C(=O)N2c1nc2ccccc2s1` (stereo not given) came in with a TGI of 33.8 µM.

In the next experiment the test system is A498 renal. As to the kind of experiment: NCI anticancer screen, dose series, 48 h.
For the molecule `CC1(C)O[C@H]2OC3CCC(=O)CC3(O)[C@H]2O1` (stereo not given in full), the TGI is above 100 µM.

Take `Cc1cc2c(cc1C)NC1=C(N2)OC(c2c[nH]c3ccc(COc4ccccc4)cc23)C1=O` (stereo not given): the TGI is above 100 µM.

Consider `O=C(O)C1=NN(c2ccc(S(=O)(=O)O)cc2)C2(C1)C(Cl)C(=O)N2c1nc2ccccc2s1` (stereo not given), for which the TGI stood at 36.7 µM.

Another experiment concerns ACHN renal. Description: NCI anticancer screen, dose series, 48 h.
Turning to `CC1(C)O[C@H]2OC3CCC(=O)CC3(O)[C@H]2O1` (stereo not given in full), the TGI is above 100 µM.

In the case of `Cc1cc2c(cc1C)NC1=C(N2)OC(c2c[nH]c3ccc(COc4ccccc4)cc23)C1=O` (stereo not given), the TGI is above 100 µM.

The molecule `O=C(O)C1=NN(c2ccc(S(=O)(=O)O)cc2)C2(C1)C(Cl)C(=O)N2c1nc2ccccc2s1` (stereo not given) returned a TGI of 30.7 µM.

A further experiment has as its system RPMI-8226 leukemia. As to the kind of experiment: NCI anticancer screen, dose series, 48 h.
Molecule `O=C1N[C@@H]2CCC[C@@H]2[C@@H]1c1ccc(Cl)cc1` came in with a TGI above 100 µM.

As to `CC1(C)O[C@H]2OC3CCC(=O)CC3(O)[C@H]2O1` (stereo not given in full), the TGI was above 100 µM.

Molecule `Cc1cc2c(cc1C)NC1=C(N2)OC(c2c[nH]c3ccc(COc4ccccc4)cc23)C1=O` (stereo not given) came in with a TGI above 100 µM.

Turning to `O=C(O)C1=NN(c2ccc(S(=O)(=O)O)cc2)C2(C1)C(Cl)C(=O)N2c1nc2ccccc2s1` (stereo not given), the TGI was determined as 35.6 µM.

The next experiment relates to SF-295 CNS. As to the kind of experiment: NCI anticancer screen, dose series, 48 h.
`O=C1N[C@@H]2CCC[C@@H]2[C@@H]1c1ccc(Cl)cc1` returned a TGI above 100 µM.

Turning to `CC1(C)O[C@H]2OC3CCC(=O)CC3(O)[C@H]2O1` (stereo not given in full), the TGI is above 100 µM.

Take `Cc1cc2c(cc1C)NC1=C(N2)OC(c2c[nH]c3ccc(COc4ccccc4)cc23)C1=O` (stereo not given): the TGI is above 100 µM.

In the case of `O=C(O)C1=NN(c2ccc(S(=O)(=O)O)cc2)C2(C1)C(Cl)C(=O)N2c1nc2ccccc2s1` (stereo not given), the TGI turned out to be 32.3 µM.

The test system of a further experiment is HL-60(TB) leukemia. As to the kind of experiment: NCI anticancer screen, dose series, 48 h.
Molecule `O=C1N[C@@H]2CCC[C@@H]2[C@@H]1c1ccc(Cl)cc1` came in with a TGI above 100 µM.

In the case of `CC1(C)O[C@H]2OC3CCC(=O)CC3(O)[C@H]2O1` (stereo not given in full), the TGI is above 100 µM.

In turn, `Cc1cc2c(cc1C)NC1=C(N2)OC(c2c[nH]c3ccc(COc4ccccc4)cc23)C1=O` (stereo not given) came in with a TGI above 100 µM.

`O=C(O)C1=NN(c2ccc(S(=O)(=O)O)cc2)C2(C1)C(Cl)C(=O)N2c1nc2ccccc2s1` (stereo not given) came in with a TGI of 34.4 µM.

Another experiment concerns LOX IMVI melanoma. Description: NCI anticancer screen, dose series, 48 h.
For the molecule `O=C1N[C@@H]2CCC[C@@H]2[C@@H]1c1ccc(Cl)cc1`, the TGI was above 100 µM.
